Test results taken from ChEMBL document CHEMBL1201862, “PubChem BioAssay data set” (2004).
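Results reflect a 48-hour exposure of cells in 96-well plates to compound at five concentrations. The concentration for 50% growth inhibition is given as GI50.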 Active and inactive are the calls of the source. Cut-off read from the data, not from the text of the source: active = GI50 up to about 1.1 µM and inactive = higher.

Tests used:
Assay in all cases: inhibition of tumour cell growth, NCI panel, 48 h
[1] = system: SF-295
[2] = system: Malme-3M
[3] = system: COLO 205
[4] = system: NCI-H226
[5] = system: HCC 2998
[6] = system: KM12
[7] = system: UO-31
[8] = system: HT-29
[9] = system: OVCAR-8
[10] = system: NCI-H522
[11] = system: M19-MEL
[12] = system: DMS-114
[13] = system: SNB-19
[14] = system: LXFL 529
[15] = system: HCT-15
[16] = system: SK-MEL-2
[17] = system: M14
[18] = system: CCRF-CEM
[19] = system: DMS-273
[20] = system: UACC-62
[21] = system: SK-MEL-28
[22] = system: SK-MEL-5
[23] = system: SNB-78
[24] = system: SW-620
[25] = system: RXF 631
[26] = system: DLD-1
[27] = system: HCT-116
[28] = system: OVCAR-4
[29] = system: NCI-H460
[30] = system: A549
[31] = system: SF-539
[32] = system: HOP-62
[33] = system: ACHN
[34] = system: UACC-257
[35] = system: EKVX
[36] = system: IGROV-1
[37] = system: SN12C
[38] = system: RPMI-8226
[39] = system: CAKI-1
[40] = system: SR
[41] = system: KM-20L2
[42] = system: U-251
[43] = system: SF-268
[44] = system: 786-0
[45] = system: OVCAR-3
[46] = system: MOLT-4
[47] = system: LOX IMVI
[48] = system: NCI-H23
[49] = system: OVCAR-5
[50] = system: K562
[51] = system: SNB-75
[52] = system: HL-60
[53] = system: SK-OV-3
[54] = system: HOP-92
[55] = system: HOP-18
[56] = system: A498
[57] = system: TK-10
[58] = system: RXF 393
[59] = system: XF498

COc1ccc(C(C2=C(O)CC(C)OC2=O)C2=C(O)CC(C)OC2=O)cc1 (configuration not stated)
GI50 [1]: > 100 µM (inactive)
GI50 [2]: > 100 µM (inactive)
GI50 [3]: > 100 µM (inactive)
GI50 [4]: > 100 µM (inactive)
GI50 [5]: > 100 µM (inactive)
GI50 [6]: > 100 µM (inactive)
GI50 [7]: > 100 µM (inactive)
GI50 [8]: > 100 µM (inactive)
GI50 [9]: > 100 µM (inactive)
GI50 [10]: > 100 µM (inactive)
GI50 [11]: > 100 µM (inactive)
GI50 [12]: > 100 µM (inactive)
GI50 [13]: > 100 µM (inactive)
GI50 [14]: > 100 µM (inactive)
GI50 [15]: > 100 µM
GI50 [16]: > 100 µM (inactive)
GI50 [17]: > 100 µM (inactive)
GI50 [18]: > 100 µM (inactive)
GI50 [19]: > 100 µM (inactive)
GI50 [20]: > 100 µM (inactive)
GI50 [21]: > 100 µM (inactive)
GI50 [22]: > 100 µM (inactive)
GI50 [23]: > 100 µM (inactive)
GI50 [24]: > 100 µM (inactive)
GI50 [25]: > 100 µM (inactive)
GI50 [26]: > 100 µM (inactive)
GI50 [27]: > 100 µM (inactive)
GI50 [28]: > 100 µM (inactive)
GI50 [29]: > 100 µM (inactive)
GI50 [30]: > 100 µM (inactive)
GI50 [31]: > 100 µM (inactive)
GI50 [32]: > 100 µM (inactive)
GI50 [33]: > 100 µM (inactive)
GI50 [34]: > 100 µM (inactive)
GI50 [35]: > 100 µM (inactive)
GI50 [36]: > 100 µM (inactive)
GI50 [37]: > 100 µM (inactive)
GI50 [38]: > 100 µM (inactive)
GI50 [39]: > 100 µM (inactive)
GI50 [40]: > 100 µM (inactive)
GI50 [41]: > 100 µM (inactive)
GI50 [42]: > 100 µM (inactive)
GI50 [43]: > 100 µM (inactive)
GI50 [44]: > 100 µM (inactive)
GI50 [45]: > 100 µM (inactive)
GI50 [46]: > 100 µM (inactive)
GI50 [47]: > 100 µM (inactive)
GI50 [48]: > 100 µM (inactive)
GI50 [49]: > 100 µM (inactive)
GI50 [50]: > 100 µM (inactive)
GI50 [51]: > 100 µM (inactive)

COc1ccc(C(=O)Nc2ccc(S(=O)(=O)NCC(=O)O)cc2)cc1
GI50 [1]: > 100 µM (inactive)
GI50 [2]: > 100 µM (inactive)
GI50 [3]: > 100 µM (inactive)
GI50 [5]: > 100 µM (inactive)
GI50 [6]: > 100 µM (inactive)
GI50 [7]: > 100 µM (inactive)
GI50 [8]: > 100 µM (inactive)
GI50 [9]: > 100 µM (inactive)
GI50 [10]: > 100 µM (inactive)
GI50 [11]: > 100 µM (inactive)
GI50 [13]: > 100 µM (inactive)
GI50 [14]: > 100 µM (inactive)
GI50 [15]: > 100 µM
GI50 [16]: > 100 µM (inactive)
GI50 [17]: > 100 µM (inactive)
GI50 [18]: > 100 µM (inactive)
GI50 [19]: > 100 µM (inactive)
GI50 [20]: > 100 µM (inactive)
GI50 [21]: > 100 µM (inactive)
GI50 [22]: > 100 µM (inactive)
GI50 [24]: > 100 µM (inactive)
GI50 [25]: > 100 µM (inactive)
GI50 [26]: > 100 µM (inactive)
GI50 [52]: > 100 µM (inactive)
GI50 [53]: > 100 µM (inactive)
GI50 [54]: > 100 µM (inactive)
GI50 [55]: > 100 µM (inactive)
GI50 [28]: > 100 µM (inactive)
GI50 [29]: > 100 µM (inactive)
GI50 [30]: > 100 µM (inactive)
GI50 [31]: > 100 µM (inactive)
GI50 [33]: > 100 µM (inactive)
GI50 [34]: > 100 µM (inactive)
GI50 [56]: > 100 µM (inactive)
GI50 [35]: > 100 µM (inactive)
GI50 [36]: > 100 µM (inactive)
GI50 [37]: > 100 µM (inactive)
GI50 [38]: > 100 µM (inactive)
GI50 [39]: > 100 µM (inactive)
GI50 [41]: > 100 µM (inactive)
GI50 [57]: > 100 µM (inactive)
GI50 [42]: > 100 µM (inactive)
GI50 [43]: > 100 µM (inactive)
GI50 [44]: > 100 µM (inactive)
GI50 [58]: > 100 µM (inactive)
GI50 [45]: > 100 µM (inactive)
GI50 [46]: > 100 µM (inactive)
GI50 [47]: > 100 µM (inactive)
GI50 [48]: > 100 µM (inactive)
GI50 [59]: > 100 µM (inactive)
GI50 [49]: > 100 µM (inactive)
GI50 [50]: > 100 µM (inactive)
GI50 [51]: > 100 µM (inactive)

O=C(C=P(c1ccccc1)(c1ccccc1)c1ccccc1)CC(=S)CC(=O)C=P(c1ccccc1)(c1ccccc1)c1ccccc1
GI50 [1]: 3.16 µM (inactive)
GI50 [2]: 5.01 µM (inactive)
GI50 [3]: 1.89 µM (inactive)
GI50 [4]: 5.85 µM (inactive)
GI50 [5]: 3.85 µM (inactive)
GI50 [6]: 3.81 µM (inactive)
GI50 [7]: 29.3 µM (inactive)
GI50 [8]: 4.14 µM (inactive)
GI50 [9]: 3.56 µM (inactive)
GI50 [10]: 2.74 µM (inactive)
GI50 [11]: 4.57 µM (inactive)
GI50 [12]: 3.41 µM (inactive)
GI50 [13]: 4.33 µM (inactive)
GI50 [14]: 2.77 µM (inactive)
GI50 [15]: 15.3 µM
GI50 [17]: 4.12 µM (inactive)
GI50 [18]: 3.24 µM (inactive)
GI50 [19]: 2.88 µM (inactive)
GI50 [20]: 4.31 µM (inactive)
GI50 [21]: 8.22 µM (inactive)
GI50 [22]: 2.81 µM (inactive)
GI50 [24]: 4.29 µM (inactive)
GI50 [25]: > 100 µM (inactive)
GI50 [26]: 4.58 µM (inactive)
GI50 [27]: 2.86 µM (inactive)
GI50 [52]: 1.98 µM (inactive)
GI50 [53]: 3.95 µM (inactive)
GI50 [54]: 1.65 µM (inactive)
GI50 [55]: 2.59 µM (inactive)
GI50 [28]: 7.5 µM (inactive)
GI50 [29]: 4.36 µM (inactive)
GI50 [30]: 4.17 µM (inactive)
GI50 [31]: 4.09 µM (inactive)
GI50 [32]: 8.04 µM (inactive)
GI50 [33]: 7.08 µM (inactive)
GI50 [34]: 3.15 µM (inactive)
GI50 [56]: 4.14 µM (inactive)
GI50 [35]: 21.6 µM (inactive)
GI50 [36]: 4.66 µM (inactive)
GI50 [37]: 3.39 µM (inactive)
GI50 [38]: 2.24 µM (inactive)
GI50 [39]: 16.2 µM (inactive)
GI50 [41]: 4.29 µM (inactive)
GI50 [57]: 7.96 µM (inactive)
GI50 [42]: 2.29 µM (inactive)
GI50 [43]: 5.19 µM (inactive)
GI50 [44]: 4.16 µM (inactive)
GI50 [58]: 5.61 µM (inactive)
GI50 [45]: 2.61 µM (inactive)
GI50 [47]: 3.53 µM (inactive)
GI50 [48]: 3.14 µM (inactive)
GI50 [49]: 18.2 µM (inactive)
GI50 [50]: 2.47 µM (inactive)
